Data published in patent US20100317607A1, “USE OF COMPOUNDS FOR PREPARING ANTI-TUBERCULOSIS AGENTS” (INFECTIOUS DISEASE RESEARCH INSTITUTE, priority 2007, published 2010).
Converted amounts (≈) assume the structure as drawn. Counter-ions that a name gives are not always drawn.

What was measured:
[1] = system: H37Rv strain of M. tuberculosis; assay: Alamar Blue Susceptibility Test (MABA); assay type: cell-based; settings: H37Rv strain of M. tuberculosis, Alamar Blue; for MIC: Mycobacterium tuberculosis, read-out: MABA (TB growth inhibition, colourimetric assay)
[2] = system: non replicating phase of M. tuberculosis (H37Rv with a plasmid with an acetimidase promoter driving a luciferase gene); assay: microbe, parasite or virus in culture; assay type: cell-based; settings: non replicating M. tuberculosis H37Rv luciferase strain; for MIC: Mycobacterium tuberculosis, read-out: LORA (TB growth inhibition, MIC)

What does the source list for `FC(F)(F)c1ccc(CNc2nc(N3CCCCC3)nc3ccccc23)cc1` [Compound 38, 2-(Piperidin-1-yl)-N-(4-(trifluoromethyl)benzyl)quinazolin-4-amine]?
MIC [1]: < 10 µM; MIC [2]: < 10 µM

With `C[C@@H](Nc1nc(N2CCCCC2)nc2ccccc12)c1ccccc1` [Compound 39, (R)—N-(1-Phenylethyl)-2-(piperidin-1-yl)quinazolin-4-amine] as the molecule, how does the MIC [1] read?
Its MIC is under 10 µM.

What about the MIC [2] of the same molecule?
Its MIC is 10 to 50 µM (≈ 3.32 to 16.6 µg/mL).

How did the MIC [1] turn out when `Clc1ccccc1CNc1nc(N2CCCCC2)nc2ccccc12` [Compound 40, N-(2-Chlorobenzyl)-2-(piperidin-1-yl)quinazolin-4-amine] was run?
The MIC was under 10 µM.

And the MIC [2]?
The MIC was 10 to 50 µM (≈ 3.53 to 17.6 µg/mL).

How did the MIC [1] turn out when `Clc1cccc(CNc2nc(N3CCCCC3)nc3ccccc23)c1` [Compound 41, N-(3-Chlorobenzyl)-2-(piperidin-1-yl)quinazolin-4-amine] was run?
Its MIC is under 10 µM.

And the MIC [2]?
The MIC was 10 to 50 µM (≈ 3.53 to 17.6 µg/mL).

What does the source list for `FC(F)(F)c1ccccc1CNc1nc(N2CCCCC2)nc2ccccc12` [Compound 42, 2-(Piperidin-1-yl)-N-(2-(trifluoromethyl)benzyl)quinazolin-4-amine]?
MIC [1]: < 10 µM; MIC [2]: 10 to 50 µM (≈ 3.86 to 19.3 µg/mL)

`Cc1ccc(CNc2nc(N3CCCCC3)nc3ccccc23)cc1` [Compound 43, N-(4-Methylbenzyl)-2-(piperidin-1-yl)quinazolin-4-amine] was tested. Which MIC [1] did it give?
Its MIC is under 10 µM.

What about the MIC [2] of the same molecule?
Its MIC is 10 to 50 µM (≈ 3.32 to 16.6 µg/mL).

`COc1ccc(CNc2nc(N3CCCCC3)nc3ccccc23)cc1` [Compound 44, N-(4-Methoxybenzyl)-2-(piperidin-1-yl)quinazolin-4-amine] was tested. Which MIC [1] did it give?
Its MIC is under 10 µM.

What about the MIC [2] of the same molecule?
The MIC was 10 to 50 µM (≈ 3.48 to 17.4 µg/mL).

Which results are given for `c1ccc2c(NCC3CCCCC3)nc(N3CCCCC3)nc2c1` [Compound 45, N-(Cyclohexylmethyl)-2-(piperidin-1-yl)quinazolin-4-amine]?
MIC [1]: < 10 µM; MIC [2]: 10 to 50 µM (≈ 3.24 to 16.2 µg/mL)

For `c1csc(CNc2nc(N3CCCCC3)nc3ccccc23)c1` [Compound 48, 2-(Piperidin-1-yl)-N-(thiophen-2-ylmethyl)quinazolin-4-amine], which MIC [1] is on record?
The MIC was under 10 µM.

And the MIC [2]?
The MIC was 10 to 50 µM (≈ 3.24 to 16.2 µg/mL).

For `FC(F)(F)c1cccc(CNc2nc(N3CCCCC3)nc3ccccc23)c1` [Compound 49, 2-(Piperidin-1-yl)-N-(3-(trifluoromethyl)benzyl)quinazolin-4-amine], which MIC [1] is on record?
Its MIC is under 10 µM.

And the MIC [2]?
The MIC was 10 to 50 µM (≈ 3.86 to 19.3 µg/mL).

For `CC(C)(Nc1nc(N2CCCCC2)nc2ccccc12)c1ccccc1` [Compound 53, N-(2-Phenylpropan-2-yl)-2-(piperidin-1-yl)quinazolin-4-amine], which MIC [1] is on record?
The MIC was under 10 µM.

And the MIC [2]?
The MIC was 10 to 50 µM (≈ 3.46 to 17.3 µg/mL).

For `c1ccc(CNc2cc(N3CCCCC3)nc3ccccc23)cc1` [Compound 54, N-Benzyl-2-(piperidin-1-yl)quinolin-4-amine], which MIC [1] is on record?
Its MIC is under 10 µM.

What about the MIC [2] of the same molecule?
Its MIC is under 10 µM.

With `c1ccc2c(NC34CC5CC(CC(C5)C3)C4)nc(N3CCCCC3)nc2c1` [Compound 59, N-(1′-Adamantyl)-2-(piperidin-1-yl)quinazolin-4-amine] as the molecule, how does the “MABA (TB growth inhibition, colourimetric assay)” value [1] read?
The value was “+++ (10-50 μM=+++)”.

And the “LORA (TB growth inhibition, MIC)” value [2]?
The value was “++++ (key: TB growth<10 μM=++++; 10-50 μM=+++; 50-128 μM=++; >128 μM but inhibited=+; no inhibition=−)”.

What does the source list for `c1ccc2c(NC3C4CC5CC(C4)CC3C5)nc(N3CCCCC3)nc2c1` (stereo not shown) [Compound 60, N-(2′-Adamantyl)-2-(piperidin-1-yl)quinazolin-4-amine]?
MABA (TB growth inhibition, colourimetric assay) [1]: +++ (10-50 μM=+++); LORA (TB growth inhibition, MIC) [2]: ++++ (key: TB growth<10 μM=++++; 10-50 μM=+++; 50-128 μM=++; >128 μM but inhibited=+; no inhibition=−)

`CN(C)c1ccc(CNc2nc(N3CCCCC3)nc3ccccc23)cc1` [Compound 62, N-(4-(Dimethylamino)benzyl)-2-(piperidin-1-yl)quinazolin-4-amine] was tested. Which MIC [1] did it give?
The MIC was under 10 µM.

What about the MIC [2] of the same molecule?
Its MIC is 10 to 50 µM (≈ 3.61 to 18.1 µg/mL).

How did the MIC [1] turn out when `Fc1ccc(CNc2nc(N3CCCCC3)nc3ccccc23)cc1` [Compound 63, N-(4-Fluorobenzyl)-2-(piperidin-1-yl)quinazolin-4-amine] was run?
The MIC was under 10 µM.

And the MIC [2]?
The MIC was 10 to 50 µM (≈ 3.36 to 16.8 µg/mL).

With `Fc1cccc(CNc2nc(N3CCCCC3)nc3ccccc23)c1` [Compound 64, N-(3-Fluorobenzyl)-2-(piperidin-1-yl)quinazolin-4-amine] as the molecule, how does the MIC [1] read?
The MIC was under 10 µM.

What about the MIC [2] of the same molecule?
The MIC was 10 to 50 µM (≈ 3.36 to 16.8 µg/mL).

Which MIC [1] does the source give for `Fc1ccccc1CNc1nc(N2CCCCC2)nc2ccccc12` [Compound 65, N-(2-Fluorobenzyl)-2-(piperidin-1-yl)quinazolin-4-amine] here?
The MIC was under 10 µM.

And the MIC [2]?
The MIC was 10 to 50 µM (≈ 3.36 to 16.8 µg/mL).

Which results are given for `c1ccc(CN(Cc2ccccc2)c2nc(N3CCCCC3)nc3ccccc23)cc1` [Compound 66, N,N-Dibenzyl-2-(piperidin-1-yl)quinazolin-4-amine]?
MIC [1]: < 10 µM; MIC [2]: 10 to 50 µM (≈ 4.09 to 20.4 µg/mL)

Which results are given for `Clc1ccc(CNc2nc(N3CCCCC3)nc3ccccc23)cc1Cl` [Compound 68, N-(3,4-Dichlorobenzyl)-2-(piperidin-1-yl)quinazolin-4-amine]?
MIC [1]: < 10 µM; MIC [2]: < 10 µM

What does the source list for `Clc1ccc(CNc2nc(N3CCCCC3)nc3ccccc23)c(Cl)c1` [Compound 69, N-(2,4-Dichlorobenzyl)-2-(piperidin-1-yl)quinazolin-4-amine]?
MIC [1]: < 10 µM; MIC [2]: 10 to 50 µM (≈ 3.87 to 19.4 µg/mL)

With `Cc1ccc(CNc2nc(NCc3ccc(Cl)cc3)c3ccccc3n2)cc1` [Compound 76, N^4-(4-Chlorobenzyl)-N^2-(4-methylbenzyl)quinazoline-2,4-diamine] as the molecule, how does the MIC [1] read?
The MIC was under 10 µM.

What about the MIC [2] of the same molecule?
The MIC was 10 to 50 µM (≈ 3.89 to 19.4 µg/mL).

Which MIC [1] does the source give for `FC(F)(F)c1ccc(CNc2nc(N3CCCC3)nc3ccccc23)cc1` [Compound 78, 2-(Pyrrolidin-1-yl)-N-(4-(trifluoromethyl)benzyl)quinazolin-4-amine] here?
Its MIC is under 10 µM.

And the MIC [2]?
Its MIC is 10 to 50 µM (≈ 3.72 to 18.6 µg/mL).

With `Cc1ccc(CNc2nc(NCc3ccc(C(F)(F)F)cc3)c3ccccc3n2)cc1` [Compound 79, N^4-(4-Trifluoromethylbenzyl)-N^2-(4-methylbenzyl)quinazoline-2,4-diamine] as the molecule, how does the MIC [1] read?
Its MIC is under 10 µM.

What about the MIC [2] of the same molecule?
Its MIC is 10 to 50 µM (≈ 4.22 to 21.1 µg/mL).

Which MIC [1] does the source give for `Cc1cccc(CNc2nc(N3CCCCC3)nc3ccccc23)c1` [Compound 80, N-(3-Methylbenzyl)-2-(piperidin-1-yl)quinazolin-4-amine hydrochloride] here?
The MIC was under 10 µM.

What about the MIC [2] of the same molecule?
Its MIC is 10 to 50 µM.

What does the source list for `Clc1ccc(CCNc2nc(N3CCCCC3)nc3ccccc23)cc1` [Compound 83, N-(4-Chlorophenethyl)-2-(piperidin-1-yl)quinazolin-4-amine hydrochloride]?
MIC [1]: < 10 µM; MIC [2]: < 10 µM

How did the MIC [1] turn out when `COc1ccc(CCNc2nc(N3CCCCC3)nc3ccccc23)cc1` [Compound 84, N-(4-Methoxyphenethyl)-2-(piperidin-1-yl)quinazolin-4-amine hydrochloride] was run?
Its MIC is under 10 µM.

And the MIC [2]?
The MIC was 10 to 50 µM.

`N#Cc1ccc(CNc2nc(N3CCCCC3)nc3ccccc23)cc1` [Compound 92, 4-((2-(Piperidin-1-yl)quinazolin-4-ylamino)methyl)benzonitrile] was tested. Which MIC [1] did it give?
Its MIC is under 10 µM.

What about the MIC [2] of the same molecule?
The MIC was 50 to 128 µM (≈ 17.2 to 44 µg/mL).

How did the MIC [1] turn out when `COC(=O)c1ccc(CNc2nc(N3CCCCC3)nc3ccccc23)cc1` [Compound 93, Methyl 4-((2-(piperidin-1-yl)quinazolin-4-ylamino)methyl)benzoate] was run?
The MIC was under 10 µM.

And the MIC [2]?
Its MIC is 50 to 128 µM (≈ 18.8 to 48.2 µg/mL).

Which results are given for `C[C@@H](Nc1nc(N2CCCCC2)nc2ccccc12)c1ccc(Cl)cc1` [Compound 96, (R)—N-(1-(4-Chlorophenyl)ethyl)-2-(piperidin-1-yl)quinazolin-4-amine hydrochloride]?
MIC [1]: < 10 µM; MIC [2]: 10 to 50 µM

How did the MIC [1] turn out when `C[C@@H](Nc1nc(N2CCCCC2)nc2ccccc12)c1ccc(F)cc1` [Compound 98, (R)—N-(1-(4-Fluorophenyl)ethyl)-2-(piperidin-1-yl)quinazolin-4-amine hydrochloride] was run?
Its MIC is under 10 µM.

What about the MIC [2] of the same molecule?
The MIC was 10 to 50 µM.

How did the MIC [1] turn out when `C[C@@H](Nc1nc(N2CCCCC2)nc2ccccc12)c1cccc2ccccc12` [Compound 99, (R)—N-(1-(Naphthalen-1-yl)ethyl)-2-(piperidin-1-yl)quinazolin-4-amine hydrochloride] was run?
Its MIC is under 10 µM.

What about the MIC [2] of the same molecule?
The MIC was 10 to 50 µM.

What does the source list for `C[C@@H](Nc1nc(N2CCCCC2)nc2ccccc12)c1ccc2ccccc2c1` [Compound 100, (R)—N-(1-(Naphthalen-2-yl)ethyl)-2-(piperidin-1-yl)quinazolin-4-amine hydrochloride]?
MIC [1]: < 10 µM; MIC [2]: 10 to 50 µM

`FC(F)(F)c1ccc(CCNc2nc(N3CCCCC3)nc3ccccc23)cc1` [Compound 105, 2-(Piperidin-1-yl)-N-(4-(trifluoromethyl)phenethyl)quinazolin-4-amine] was tested. Which MIC [1] did it give?
Its MIC is under 10 µM.

What about the MIC [2] of the same molecule?
Its MIC is under 10 µM.

What does the source list for `Clc1ccc(CNc2nc(N3CCc4ccccc4C3)nc3ccccc23)cc1` [Compound 106, N-(4-Chlorobenzyl)-2-(3,4-dihydroisoquinolin-2(1H)-yl)quinazolin-4-amine hydrochloride]?
MIC [1]: < 10 µM; MIC [2]: < 10 µM

What does the source list for `Clc1ccc(CNc2nc(N3CCCCC3)c3ccccc3n2)c(Cl)c1` [Compound 112, N-(2,4-Dichlorobenzyl)-4-(piperidin-1-yl)quinazolin-2-amine hydrochloride]?
MIC [1]: < 10 µM; MIC [2]: < 10 µM

For `FC(F)(F)c1ccc(CNc2nc(N3CCc4ccccc4C3)nc3ccccc23)cc1` [Compound 114, 2-(3,4-Dihydroisoquinolin-2(1H)-yl)-N-(4-(trifluoromethyl)benzyl)quinazolin-4-amine hydrochloride], which MIC [1] is on record?
The MIC was under 10 µM.

And the MIC [2]?
The MIC was under 10 µM.

What does the source list for `Fc1ccc(CNc2nc(N3CCCCC3)nc3ccccc23)c(F)c1` [Compound 115, N-(2,4-Difluorobenzyl)-2-(piperidin-1-yl)quinazolin-4-amine hydrochloride]?
MIC [1]: < 10 µM; MIC [2]: 10 to 50 µM

Which MIC [1] does the source give for `Fc1ccc(CNc2nc(N3CCCCC3)nc3ccccc23)cc1F` [Compound 116, N-(3,4-Difluorobenzyl)-2-(piperidin-1-yl)quinazolin-4-amine hydrochloride] here?
The MIC was under 10 µM.

And the MIC [2]?
The MIC was 10 to 50 µM.

`C[C@@H](Nc1nc(N2CCCCC2)nc2ccccc12)c1ccc(C(F)(F)F)cc1` [Compound 117, (R)-2-(Piperidin-1-yl)-N-(1-(4-(trifluoromethyl)phenyl)ethyl)quinazolin-4-amine] was tested. Which MIC [1] did it give?
The MIC was under 10 µM.

And the MIC [2]?
The MIC was under 10 µM.

Which MIC [1] does the source give for `CC(C)(Nc1nc(N2CCCCC2)nc2ccccc12)c1ccc(F)cc1` [Compound 120, N-(2-(4-Fluorophenyl)propan-2-yl)-2-(piperidin-1-yl)quinazolin-4-amine] here?
Its MIC is under 10 µM.

And the MIC [2]?
Its MIC is 10 to 50 µM (≈ 3.64 to 18.2 µg/mL).
